Test results from paper PMC12196476, “New Nitrogen-, Oxygen-, and Sulfur-Containing Heterocyclic Compounds as Anti-Colon Cancer Agents: Synthesis, Multitargeted Evaluations, Molecular Docking Simulations and ADMET Predictions” (Pharmaceuticals, 2025).

Experiments:
[1] = DPPH radical scavenging assay; conditions: three independent experiments; read-out: Mean IC50 (mM) for initial DPPH radicals ± SD
Experimental: The antioxidant activities of the studied compounds were assessed using the 1,1-diphenyl-2-picrylhydrazyl (DPPH) radical scavenging method as detailed by Bersuder et al.. The results were expressed as IC50 (mM)—the concentration of the test compound required to neutralize 50% of DPPH radicals.
The antioxidant efficiencies of target compounds were determined using the 1,1-diphenyl-2-picrylhydrazyl (DPPH) radical scavenging method as detailed by Bersuder et al.. […]
S3.2. Evaluation of Biological Activities.
S3.2.1. In vitro DPPH radical scavenging assay.
The antioxidant efficiencies of compounds—3a−e, 8, 9a−c, 13, 14, 17, 18a−h, 20, 22, 23, and 25—were
determined using the 1,1-diphenyl-2-picrylhydrazyl (DPPH) radical scavenging method as
detailed by Bersuder et al.. Fundamentally, the purple color of the stabilized DPPH radical
fades in the presence of an antioxidant, thus, the change of absorbance can be followed
spectrophotometrically at 519 nm. In the assay, equal volumes (0.5 mL) of DPPH ethanolic solution
and each compound (0-2 mg/mL in DMSO) or butylated hydroxytoluene (BHT) as the reference
were mixed well by shaking. The negative control consisted of the same amount of DMSO and
DPPH solution. After, incubation all mixtures at room temperature in the dark for one hour, the
absorbance of the residual DPPH radicals was measured at 519 nm using the UV‐vis
spectrophotometer. The DPPH radical scavenging activity of each compound (%) was calculated
Scavenging activity = (1 − Acompound/AControl) * 100, where Acompound and Acontrol the absorbance values
of each tested compound (or BHT) and the negative control, respectively. The half maximal
inhibitory concentration (IC50) for each compound in mg/mL was deduced by graphing the dose-
response curve relating the scavenging activity (%) to the compound concentration. Data points
represent the mean ± standard deviation (SD) of three independent determinations.

PDK-1 = PDK-1 (Homo sapiens, UniProt Q15118); experiment: In vitro PDK-1 inhibition assay (Kinase-Glo luminescent kinase kit); type: biochemical; conditions: 100 µg/mL, three replicates; for inhibition at 100 µg/mL: read-out: Mean Inhibition Percent ± SD, PDK-1
Experimental: Principally, the PDK-1 inhibitory activities were evaluated using the non-radioactive Kinase-Glo™ Luminescent Kinase Kit (Promega Corporation, Madison, WI, USA) following the instructions of the manufacturer.
S3.2.2. In vitro PDK-1 inhibition assay.
The PDK-1 inhibitory activities of the test compounds were evaluated using the non-radioactive
Kinase-Glo™ Luminescent Kinase kit (Promega Corporation, Madison, WI, USA), following the
manufacturer’s protocol. Briefly, 5 μL of assay buffer—containing 10 × 250 mM Tris-HCl, 50 mM
MgCl2, 5 mM ethyleneglycol-bis(β-aminoethylether)-N,N,N′,N′-tetraacetic acid (EGTA), 10 mM
ethylenedi- aminetetraacetic acid (EDTA), and 10 mM dithiothreitol (DTT)—was added to each
well of a 96-well plate, along with 25 μL of distilled water. Subsequently, 5 μL of each test
compound at various concentrations (50, 100, 200 and 300 μg/mL in 1% DMSO) was added to the
respective wells, except for the two control wells, which received 5 μL of either PBS buffer or 1%
DMSO. Then, 5 μL of pyruvate dehydrogenase E1 (PDH E1) protein (10 μM) and 5 μL of ATP
(10 μM) were added to each well. To initiate phosphorylation, 5 μL of PDK-1 (20 μM) in protein
buffer (1 mM MgCl2, 2000 mM KCl, 40 mM K3PO4) was added to all the wells except the control
wells, which received 5 μL of protein buffer instead. The plate was then mixed thoroughly and
incubated at 37 °C for 30 minutes. After incubation, 50 μL of kinase-Glo® reagent was added to each
well, followed by a 10-minute incubation at room temperature with gentle shaking to stabilize the
luminescent signal. Luminescence was then measured using a microplate reader.
The IC50 value—defined as the concentration of a compound required to reduce luminescence by
50%, compared to untreated control wells—was determined for each compound from the
corresponding dose–response curve generated by plotting PDK-1 inhibition (%) versus compound
concentration. Sodium dichloroacetate (SDA, 1000 μM) was used as a reference PDK-1inhibitor. […]

[2] = target: recombinant human LDHA protein (Homo sapiens, UniProt P00338); experiment: In vitro LDHA inhibitory assay (NADH consumption); type: biochemical; conditions: 100 µg/mL, three replicates; for inhibition at 100 µg/mL: read-out: Mean Inhibition Percent ± SD, LDHA
Excerpt: The LDHA inhibitory efficiencies were investigated on Spectramax M2 spectrofluorometer via measuring the amounts of the consumed NADH^40 using an NAD^+/NADH quantification kit. […]
S3.2.3. In vitro LDHA inhibitory assay.
The LDHA inhibitory activity of the test compounds was investigated using Spectramax M2
spectrofluorometer by measuring the amounts of the consumed NADH [42] employing
NAD+/NADH quantification kit. Briefly, the assay medium containing various concentrations of
each test compound (50, 100, 200 and 300 μg/mL) was incubated in assay medium composed of 20
mM of HEPES-K+ buffer (pH 7.2), 20 μM of NADH, 2 mM of pyruvate and 10 ng of purified
recombinant human LDHA protein for 10 min utes. The activity of LDHA would result in reduction
of pyruvate into lactate with concomitant oxidation of NADH to NAD +. Since NADH (reduced
LDHA, could be inversely quantified by monitoring the change in the intensity of the fluorescence
at 340 nm over a 10-minute period. The rate of the fluorescence change (slope) in treated samples
was compared to that obtained from negative control experiment (100 % enzymatic activity) to
determine the percentage of inhibition. The IC50 value—defined as the compound concentration
required to reduce the luminescence by 50%, compared to untreated control wells—was
determined for each compound from the corresponding dose–response curve generated by
plotting LDHA inhibition (%) against compound concentration.
was used as the reference LDHA inhibitor. […]

[3] = system: LoVo colon carcinoma cells; experiment: Cell viability, LDH release assay, LoVo; conditions: 48 h; for viability at 100 µg/mL / IC50: Homo sapiens, LoVo; for viability at 100 µg/mL: read-out: Mean % of viable cells ± SD, LoVo, 100 µg/mL, 48 h, LDH release assay; for IC50: read-out: Mean IC50 Values in µM ± SD, LoVo cells
Experimental: (§1) The studied compounds were also screened for their cytotoxic effects on HCT-116 and LoVo colon carcinoma cells, as well as normal HUVECs, using the standard LDH assay at a concentration of 100 µg/mL.
(§2) The antiproliferative activities of the newly synthesized compounds 3a–e, 8, 9a–c, 13, 14, 17, 18a–h, 20, 22, 23 and 25 were examined on human colon HCT-116 and LoVo cell lines as well as HUVEC (American Type Culture Collection, Manassas, VA, USA). […]
(§3) S3.2.4. Cell culture and viability assay.
(§4) The cytotoxic activities of the newly synthesized compounds (3a-e, 8, 9a-c, 13, 14, 17, 18a-h, 20, 22,
(§5) 23, and 25) were examined on human colon cancer cell lines HCT-116 and Lovo (American Type
(§6) Culture Collection, USA). Various concentrations (50, 100, 200, and 400 μg/mL) of test compounds
(§7) were prepared in Dulbecco’s Modified Eagles Medium (PAN-Biotech, Barcelona, Spain),

[4] = system: HCT-116 colon carcinoma cells; experiment: Cell viability, LDH release assay, HCT-116; conditions: for viability at 100 µg/mL / IC50: Homo sapiens, HCT-116, 48 h; for viability at 100 µg/mL: read-out: Mean % of viable cells ± SD, HCT-116, 100 µg/mL, 48 h, LDH release assay; for IC50: read-out: Mean IC50 Values in µM ± SD, HCT-116 cells
Experimental: as §1, §2, §3, §4, §5, §6, §7

[5] = Cell viability, LDH release assay, normal HUVECs; conditions: human, normal HUVECs, Mean % of viable cells ± SD, HUVEC
Experimental: as §1, §2
(§8) medium served used as negative and positive controls, respectively. Percentages of viable cells […]
(§9) were calculated based on relative optical density (OD) values (at 550 nm) for compound-treated […]
(§10) wells (final concentration of 100 μg/mL), compared to the negative control, and expressed as mean value (%) ± SD from two replicates. Graphing dose-response curves representing the compound […]
(§11) concentration versus the percentages of viable cells was also conducted to deduce the half - […]
(§12) Additionally, the safety profiles of the studied compounds were assessed against normal cells […]
(§13) (HUVECs) at final concentration of 100 μg/mL . HUVECs were grown in Dulbecco’s Modified Eagle’s Medium supplemented with 10% FBS, 2 mM glutamine (Sigma Aldrich), 100 units/mL penicillin and […] streptomycin (Life Technologies; Paisley, UK). […]

HUVECs = experiment: Cell viability, LDH release assay, normal HUVECs; conditions: 100 µg/mL, 48 h
Experimental: as §1, §2, §8, §9, §10, §11, §12, §13

Sequence of PDK-1 (Q15118 29-436): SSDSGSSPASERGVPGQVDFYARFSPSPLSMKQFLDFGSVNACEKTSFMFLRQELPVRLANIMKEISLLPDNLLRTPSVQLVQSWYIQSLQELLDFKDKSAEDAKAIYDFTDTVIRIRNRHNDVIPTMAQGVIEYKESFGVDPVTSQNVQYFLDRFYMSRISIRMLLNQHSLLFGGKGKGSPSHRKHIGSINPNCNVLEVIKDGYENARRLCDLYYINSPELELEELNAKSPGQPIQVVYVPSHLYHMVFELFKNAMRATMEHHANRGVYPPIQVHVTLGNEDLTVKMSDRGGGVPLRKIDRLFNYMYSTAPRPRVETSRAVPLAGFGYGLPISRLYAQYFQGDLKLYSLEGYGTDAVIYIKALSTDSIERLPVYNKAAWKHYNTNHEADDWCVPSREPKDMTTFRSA

Row | IC50 [1] [mM] | inhibition at 100 µg/mL (PDK-1) [%] | inhibition at 100 µg/mL [2] [%] | IC50 [3] [µM] | IC50 [4] [µM] | Compound | viability at 100 µg/mL [3] [%] | viability at 100 µg/mL [4] [%] | viability at 48 h, 100 µg/mL [5] [%] | Mean Inhibition Percent ± SD, PDK-1 (PDK-1) [%] | Mean Inhibition Percent ± SD, LDHA [2] [%] | Mean % of viable cells ± SD, LoVo ([3]; 100 µg/mL, LDH release assay) [%] | Mean % of viable cells ± SD, HCT-116 ([4]; 100 µg/mL, 48 h, LDH release assay) [%] | Mean % of viable cells ± SD, HUVEC (HUVECs) [%]
1 | 0.65 ± 0.076 | 39.5 ± 2.12 | 27.2 ± 2.48 | 437.3 ± 1.51 | 511 ± 5.61 | COc1cc(C=C(NC(=O)c2ccccc2)c2n[nH]c(=S)o2)ccc1O [Compound 22, N-(2-(4-Hydroxy-3-methoxyphenyl)-1-(5-thioxo-4,5-dihydro-1,3,4-oxa-diazol-2-yl)vinyl)benzamide] | 29.5 ± 2.12 | 40.5 ± 3.54 | 79 ± 2 | – | – | – | – | –
2 | 1.21 ± 0.03 | 11 ± 1.41 | 34.4 ± 3.32 | 444 ± 9.17 | 215.4 ± 1.25 | COc1cc(/C=C(\NC(=O)c2ccccc2)C(=O)NNC(=S)Nc2ccccc2)ccc1O [Compound 23, N-(1-(4-Hydroxy-3-methoxyphenyl)-3-oxo-3-(2-(phenylcarbamothionyl)hydrazinyl)prop-1-en-2-yl)benzamide] | 57.5 ± 2.12 | 23 ± 2.83 | 80 ± 1.92 | – | – | – | – | –

Row | Compound | IC50 [1] [mM] | inhibition at 100 µg/mL (PDK-1) [%] | inhibition at 100 µg/mL [2] [%] | IC50 [3] [µM] | IC50 [4] [µM] | viability at 100 µg/mL [3] [%] | viability at 100 µg/mL [4] [%] | viability at 48 h, 100 µg/mL [5] [%] | Mean Inhibition Percent ± SD, PDK-1 (PDK-1) [%] | Mean Inhibition Percent ± SD, LDHA [2] [%] | Mean % of viable cells ± SD, LoVo ([3]; 100 µg/mL, LDH release assay) [%] | Mean % of viable cells ± SD, HCT-116 ([4]; 100 µg/mL, 48 h, LDH release assay) [%] | Mean % of viable cells ± SD, HUVEC (HUVECs) [%]
3 | N-(3-(2-(1-(2-((2,4-Dimethylphenyl)amino)-2-oxoethyl)-2-oxoindolin-3-ylidene)hydrazinyl)-1-(4-hydroxy-3-methoxyphenyl)-3-oxoprop-1-en-2-yl)benzamide [Compound 25] | 0.162 ± 0.023 | – | – | – | – | – | – | – | 13.30±1.84 | 40.50 ± 3.54 | 71.50 ± 3.54 | 79.00 ± 2.83 | 87.94 ± 2.33
